Laboratory results as given in article PMC12860560, “Chromosome-level genome assembly of Cornus officinalis reveals the evolution of loganin biosynthesis” (Horticulture Research, 2025).

Target: T1, CrLAMT (Catharanthus roseus, UniProt B2KPR3)
T1 construct: gene LAMT; pBI121 vector, expressed in Nicotiana benthamiana
T1 sequence (B2KPR3 1-371): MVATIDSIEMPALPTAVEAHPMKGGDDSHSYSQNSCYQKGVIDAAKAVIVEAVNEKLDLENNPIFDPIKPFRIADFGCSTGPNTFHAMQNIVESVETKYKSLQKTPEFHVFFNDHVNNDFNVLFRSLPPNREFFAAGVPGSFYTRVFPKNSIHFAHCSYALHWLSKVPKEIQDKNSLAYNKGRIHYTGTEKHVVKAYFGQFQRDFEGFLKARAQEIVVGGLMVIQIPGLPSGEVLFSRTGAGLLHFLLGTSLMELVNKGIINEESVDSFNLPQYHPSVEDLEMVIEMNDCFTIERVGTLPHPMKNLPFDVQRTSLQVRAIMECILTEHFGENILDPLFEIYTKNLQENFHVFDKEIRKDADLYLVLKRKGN
Assay: HPLC of product loganin
Assay type: cell-based
Details: expressed in N. benthamiana; preparation of the HPLC assay not told

C[C@@H]1[C@H]2[C@H](O[C@@H]3O[C@H](CO)[C@@H](O)[C@H](O)[C@H]3O)OC=C(C(=O)O)[C@H]2C[C@@H]1O [loganic acid]
HPLC of product loganin: production of loganin by CaLAMT, CrLAMT, and CoLAMT using loganic acid as the substrate
